Assay results from patent publication US20240226318A1, “ANTIBODY DRUG CONJUGATE TARGETING NECTIN 4 AND PREPARATION METHOD THEREFOR AND USE THEREOF” (JIANGSU MABWELL HEALTH PHARMACEUTICAL R&D CO., LTD., priority 2021, published 2024).

Assays:
[1] = molecular target: T1, human FcγR IIa (human CD32a (H167)) (Homo sapiens, UniProt P12318); experiment: BIAcore affinity for Fc receptor FcγRIIa; type: binding; conditions: pH 7.4
T1 sequence (P12318 36-218 limits assumed): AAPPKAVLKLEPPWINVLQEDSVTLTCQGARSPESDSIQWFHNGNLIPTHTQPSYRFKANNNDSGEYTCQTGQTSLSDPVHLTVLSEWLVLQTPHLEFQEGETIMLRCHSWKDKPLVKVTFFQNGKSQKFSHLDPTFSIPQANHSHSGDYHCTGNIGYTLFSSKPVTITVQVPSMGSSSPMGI
Protocol: (§1) Human FcγR I (CD64), FcγR IIa (CD32a (H167)), FcγR IIb (CD32b), and FcγR IIIa (CD16a (V176)) proteins were diluted to 0.25 μg/mL with running reagent 1 (10 mM N-(2-hydroxyethyl)piperazine-N-2 sulfonic acid, 150 mM sodium chloride, 3 mM ethylene diamine tetraacetic acid, 0.005% Tween-20, with pH adjusted to 7.4), and FcRn protein was diluted to 0.25 μg/mL with running reagent 2 (2 mM sodium dihydrogen phosphate, 10 mM disodium hydrogen phosphate, 137 mM sodium chloride, 2.7 mM potassium chloride, 0.05% tween-20, with pH adjusted to 6.0) and all the diluted proteins were sequentially injected to the experimental channels with His capture chips (FC2) at a flow rate of […] for about 40 RU. The capture of the ligands was not required for the reference channel (FC1). Samples to be detected were diluted with corresponding running reagents, and then were injected into the experimental channels and the reference channel at a flow rate of 30 μL/min. Association and dissociation was monitored for certain time periods. The Biocore 8K analysis software was used to calculate KD values for each antibody. The reference channel (FC1) was used for background subtraction.

T24/nectin-4 cells = experiment: In vivo efficacy, bladder cancer animal model T24/nectin-4; design: species or system Nude mice (BALB/cJGpt-Foxn1nu/Gpt); conditions: T24/nectin-4 model; for Average weight (g) at the beginning / Average weight (g) at the end: mouse body weight
Text: (§2) MIDA-MB-468 cells, i.e. human breast carcinoma cells (purchased from ATCC), NCI-H322 cells, i.e. lung cancer cells (purchased from ATCC), and T24/nectin-4, i.e. bladder cancer cells (available from the cell bank of the Chinese Academy of Science) were utilized respectively to inoculate Nude mice (BALB/cJGpt-Foxn1nu/Gpt, 4-5 weeks old) for establishing mouse models.
(§3) The antibody-drug conjugate 3d and the control drug PADCVE (Enfortumab Vedotin, purchased from Seattle Gentics) were grouped and studied (as shown in Table 9 below). The mice were intravenously injected (IV) in a volume of 10 mL/kg, respectively; and the mice of the vehicle group were intravenously injected the same volume of vehicle (physiological saline). Tumor volumes were measured 2 times per week, and the mice were weighed and the data was recorded.
(§4) When the experiment was finished, the experimental endpoint was reached, or if the tumor volume reached 1500 mm^3, the animals were sacrificed under CO2 anesthesia and the tumors were dissected and photographed.
(§5) The method for evaluating in vivo efficacy was the same as described in Section 3.3 in the Group 3 of Examples.
A mouse model was established using T24/nectin-4 cells and ADCs 3d and PADCVE were grouped and studied, as described in sections 4.1 and 4.2 in the present Group 4 of Examples.

[2] = molecular target: T2, recombinant extra-cellular domain of human Nectin-4 protein (Homo sapiens, UniProt Q96NY8); experiment: BIAcore affinity for the antigen; type: binding; conditions: human Nectin-4, pH 7.4
T2 construct: recombinant extra-cellular domain of human Nectin-4 protein; purchased Novoprotein Scientific Inc
T2 sequence (Q96NY8 32-349 limits assumed): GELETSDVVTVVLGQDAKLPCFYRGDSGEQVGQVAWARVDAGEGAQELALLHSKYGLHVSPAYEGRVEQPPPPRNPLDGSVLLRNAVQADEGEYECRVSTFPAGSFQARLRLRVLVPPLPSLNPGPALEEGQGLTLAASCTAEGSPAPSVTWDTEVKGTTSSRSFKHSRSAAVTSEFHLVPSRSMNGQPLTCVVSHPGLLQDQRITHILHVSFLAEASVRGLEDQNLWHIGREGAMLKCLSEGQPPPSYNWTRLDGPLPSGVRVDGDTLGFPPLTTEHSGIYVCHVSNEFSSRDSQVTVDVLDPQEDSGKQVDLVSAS
Protocol: Human Nectin-4 protein (purchased from Novoprotein Scientific Inc.) was subjected to buffer exchange with a desalting column using running reagent 1 (10 mM N-(2-hydroxyethyl)piperazine-N-2 sulfonic acid, 150 mM sodium chloride, 3 mM ethylene diamine tetraacetic acid, 0.005% Tween-20, with pH adjusted to 7.4). Samples to be detected were diluted to 5 μg/mL with the running reagent 1, and sequentially injected to the experimental channels with His capture chips at a flow rate of […] for about 400 RU. The capture of the ligand was not required for the reference channel. The human Nectin-4 protein was diluted to 50, 25, 12.5, 6.25, 3.125, 1.563, 0.781, 0.391, and 0 nM with the corresponding running reagent, and then the diluted human Nectin-4 protein was injected into the experimental channels and the reference channel at a flow rate of 30 μL/min. The association and dissociation time were 120 sec and 300 sec, respectively. The Biocore 8K analysis software was used to calculate KD values for each antibody. The reference channel was used for background subtraction.

[3] = cited from earlier work
human FcγR I (CD64) [4] = molecular target: T3, human FcγR I (CD64) (Homo sapiens, UniProt P12314); experiment: BIAcore affinity for Fc receptor FcγRI; type: binding; conditions: pH 7.4
Protocol: as §1

FcRn [5] = molecular target: T4, FcRn (Homo sapiens, UniProt P55899); experiment: BIAcore affinity for Fc receptor FcRn; type: binding; conditions: pH 6.0
Protocol: as §1

NCI-H322 cells = experiment: In vivo efficacy, lung cancer animal model NCI-H322; design: species or system Nude mice (BALB/cJGpt-Foxn1nu/Gpt)
Text: as §2, §3, §4, §5
A mouse model was established using NCI-H322 cells and ADCs 3d and PADCVE were grouped and studied, as described in sections 4.1 and 4.2 in the present Group 4 of Examples.

[6] = molecular target: T5, human FcγR IIb (human CD32b) (Homo sapiens, UniProt P31994); experiment: BIAcore affinity for Fc receptor FcγRIIb; type: binding; conditions: pH 7.4
T5 sequence (P31994 43-310): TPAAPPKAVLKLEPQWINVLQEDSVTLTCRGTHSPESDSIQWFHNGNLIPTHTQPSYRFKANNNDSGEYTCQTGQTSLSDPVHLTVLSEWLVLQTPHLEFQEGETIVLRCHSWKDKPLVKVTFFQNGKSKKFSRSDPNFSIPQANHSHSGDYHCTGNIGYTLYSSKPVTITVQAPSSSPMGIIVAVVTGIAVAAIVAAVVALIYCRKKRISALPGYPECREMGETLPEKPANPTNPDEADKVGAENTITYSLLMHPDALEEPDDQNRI
Protocol: as §1

MDA-MB-468 cells = experiment: In vivo efficacy, breast cancer animal model MDA-MB-468 (Group 4 Example 1); design: species or system Nude mice (BALB/cJGpt-Foxn1nu/Gpt); conditions: MDA-MB-468 model; for TV(D0): D0 baseline; for PR (D21), partial tumor regression: 8 animals per group
Text: as §2, §3, §4, §5
A mouse model was established using MDA-MB-468 cells and ADCs 3d and PADCVE were grouped and studied, as described in sections 4.1 and 4.2 in the present Group 4 of Examples.

PC-3-Nectin4(2-4) cells = experiment: Internalization activity, flow cytometry; type: cell-based
Protocol: Experiment method was as follows: the target cells at the logarithmic stage of growth were harvested by centrifugation, adjusted to a density of 5×10^5 cells/mL in complete medium (F-12K medium containing 10% FBS and 250 μg/ml G418). 1 mL of the cell suspension obtained was pipetted into EP tubes, i.e., 5×10^5 cells in each, which were then centrifuged. The supernatant was discarded and the cells were washed twice with PBS. […] (as the control group) and 37° C. (as the experiment groups) respectively. After incubation for 2 h, a fluorescently labeled secondary antibody, goat anti human IgG Fc-FITC (purchased from Sigma) was added and incubated for 1 h at 4° C. After the incubation, the fluorescence intensity was measured with a flow cytometer, and the internalization efficiency of each of the samples was calculated by the formula as follows: percent internalization at the time point tx=(1−the fluorescence intensity of the sample at 37° C./the fluorescence intensity of the sample at 4° C.)×100% (tx is the incubation time period x of the sample with the cells).

FcRn [7] = molecular target: T4, FcRn; experiment: BIAcore (SPR), FcRn captured on His capture chip, pH 6.0, ADC injected
[8] = molecular target: human FcγR IIa (human CD32a (H167)) (human) (UniProt P12318); experiment: BIAcore (SPR), Fc receptor captured on His capture chip, pH 7.4, ADC injected
human FcγR I (CD64) [9] = molecular target: T3, human FcγR I (CD64); experiment: as above
[10] = molecular target: human FcγR IIb (human CD32b) (human) (UniProt P31994); experiment: as above
[11] = molecular target: Nectin-4 on stably transfected PC-3-Nectin4(2-4) cells (UniProt Q96NY8); experiment: cell-based or functional assay
[12] = molecular target: Nectin-4 on stably transfected PC-3-Nectin4(2-4) cells (UniProt Q96NY8); experiment: flow cytometry on PC-3-Nectin4(2-4) cells, 2 h at 4° C., anti-human IgG Fc-FITC
[13] = molecular target: recombinant extra-cellular domain of human Nectin-4 protein (human) (UniProt Q96NY8); experiment: BIAcore (SPR), ADC captured on chip, human Nectin-4 protein injected at 0.391-50 nM

PADCEV
Kd [1]: 2770 nM
Average tumor weight (g) (D22) (T24/nectin-4 cells; 3 mg/kg IV at D0): 0.23 g
TGI (%) (D22) (T24/nectin-4 cells; 3 mg/kg IV at D0): 90.7%
Average weight (g) at the beginning (T24/nectin-4 cells; 3 mg/kg IV at D0): 22.0 g
Average weight (g) at the end (T24/nectin-4 cells; 3 mg/kg IV at D0): 23.0 g
Average tumor weight (g) (D22) (T24/nectin-4 cells; 10 mg/kg IV at D0): 0.09 g
TGI (%) (D22) (T24/nectin-4 cells; 10 mg/kg IV at D0): 96.3%
Average weight (g) at the beginning (T24/nectin-4 cells; 10 mg/kg IV at D0): 22.0 g
Average weight (g) at the end (T24/nectin-4 cells; 10 mg/kg IV at D0): 23.3 g
Kd [2]: 4.87 nM
ka [2]: 1.05e+06 M⁻¹ s⁻¹
kd [2]: 0.00512 s⁻¹
adverse reactions accompanying treatment ([3]; clinical studies): fever, skin itching, peripheral neuropathy, dry eyes, neutrocytopenia
medium overall survival ([3]; patients receiving chemotherapy and PD-1/PD-L1 inhibitor regimens): 12.9 months
overall survival longer than chemotherapy control group ([3]; versus patients receiving chemotherapy in the control group): 3.9 months
Kd (human FcγR I (CD64) [4]): 12.3 nM
Kd (FcRn [5]): 513 nM
TV(D0) (NCI-H322 cells; 3 mg/kg IV at D0, D0 baseline): 125.1 mm^3
T/C (%) (D21) (NCI-H322 cells; 3 mg/kg IV at D0, D21): 36%
TGI % (D21) (NCI-H322 cells; 3 mg/kg IV at D0, D21): 64%
TV(D21) (NCI-H322 cells; 3 mg/kg IV at D0, D21): 325.9 mm^3
PR (D21), partial tumor regression (NCI-H322 cells; 3 mg/kg IV at D0, D21, 8 animals per group): 0
TV(D0) (NCI-H322 cells; 10 mg/kg IV at D0, D0 baseline): 124.1 mm^3
T/C (%) (D21) (NCI-H322 cells; 10 mg/kg IV at D0, D21): −23%
TGI % (D21) (NCI-H322 cells; 10 mg/kg IV at D0, D21): 123%
TV(D21) (NCI-H322 cells; 10 mg/kg IV at D0, D21): 95.9 mm^3
PR (D21), partial tumor regression (NCI-H322 cells; 10 mg/kg IV at D0, D21, 8 animals per group): 7
Kd [6]: 16300 nM
TV(D0) (MDA-MB-468 cells; 3 mg/kg IV at D0): 133.1 mm^3
T/C (%) (D21) (MDA-MB-468 cells; 3 mg/kg IV at D0): 63%
TGI % (D21) (MDA-MB-468 cells; 3 mg/kg IV at D0): 37%
TV(D21) (MDA-MB-468 cells; 3 mg/kg IV at D0): 516.4 mm^3
PR (D21), partial tumor regression (MDA-MB-468 cells; 3 mg/kg IV at D0): 0
TV(D0) (MDA-MB-468 cells; 10 mg/kg IV at D0): 139.5 mm^3
T/C (%) (D21) (MDA-MB-468 cells; 10 mg/kg IV at D0): 28%
TGI % (D21) (MDA-MB-468 cells; 10 mg/kg IV at D0): 72%
TV(D21) (MDA-MB-468 cells; 10 mg/kg IV at D0): 309.5 mm^3
PR (D21), partial tumor regression (MDA-MB-468 cells; 10 mg/kg IV at D0): 0
Average fluorescence intensity 4° C. (PC-3-Nectin4(2-4) cells; 2 h at 4° C. (control group), average): 83966
Median fluorescence intensity 4° C. (PC-3-Nectin4(2-4) cells; 2 h at 4° C. (control group), median): 78925
Average fluorescence intensity 37° C. (PC-3-Nectin4(2-4) cells; 2 h at 37° C., average): 33129
Median fluorescence intensity 37° C. (PC-3-Nectin4(2-4) cells; 2 h at 37° C., median): 25038

PADCEV (Enfortumab Vedotin, purchased from Seattle Genetics) (antibody)
Kd (FcRn [7]): 513 nM
Kd [8]: 2770 nM
Kd (human FcγR I (CD64) [9]): 12.3 nM
Kd [10]: 16300 nM
Fluorescence intensity at 37° C. (Average), surface antibody left after internalization [11]: 33100
Fluorescence intensity at 37° C. (Median), surface antibody left after internalization [11]: 25000
fluorescence intensity at 4° C. (Average) [12]: 84000
fluorescence intensity at 4° C. (Median) [12]: 78900
Kd [13]: 4.87 nM
